Reference: US8865623B2, “Herbicidally active cyclic diones and derivatives thereof, processes for their preparation, compositions, and method of controlling weeds” (Syngenta Limited, priority 2009, dated 2014)

Key:
Format in all cases: in vivo
[1] = system: Alopecurus myosuroides (ALOMY); assay: Pre-emergence herbicidal activity, glasshouse pot test; details: Alopecurus myosuroides, 312 h; Rate 250 g/ha; pre-emergence spray; evaluated after 13 days; read-out: Pre-emergence activity ALOMY (100=total damage to plant; 0=no damage to plant)
Procedure: (§1) Seeds of a variety of test species were sown in standard soil in pots. After cultivation for one day (pre-emergence) or after 8 days cultivation (post-emergence) under controlled conditions in a glasshouse (at 24/16° C., day/night; 14 hours light; 65% humidity), the plants were sprayed with an aqueous spray solution derived from the formulation of the technical active ingredient in acetone/water (50:50) solution containing 0.5% Tween 20 (polyoxyethelyene sorbitan monolaurate, CAS RN 9005-64-5). The test plants were then grown in a glasshouse under controlled conditions in a glasshouse (at 24/16° C., day/night; 14 hours light; 65% humidity) and watered twice daily. After 13 days for pre and post-emergence, the test was evaluated (100=total damage to plant; 0=no damage to plant).
(§2) Lolium perenne (LOLPE), Alopecurus myosuroides (ALOMY), Echinochloa crus-galli (ECHCG), and Avena fatua (AVEFA).

Avena fatua (AVEFA) [2] = assay: as above; details: Avena fatua, 312 h; Rate 250 g/ha; pre-emergence spray; evaluated after 13 days; read-out: Pre-emergence activity AVEFA (100=total damage to plant; 0=no damage to plant)
Procedure: as §1, §2

Lolium perenne (LOLPE) [3] = assay: as above; details: Lolium perenne, 312 h; Rate 250 g/ha; pre-emergence spray; evaluated after 13 days; read-out: Pre-emergence activity LOLPE (100=total damage to plant; 0=no damage to plant)
Procedure: as §1, §2

[4] = system: Echinochloa crus-galli (ECHCG); assay: as above; details: Echinochloa crus-galli, 312 h; Rate 250 g/ha; pre-emergence spray; evaluated after 13 days; read-out: Pre-emergence activity ECHCG (100=total damage to plant; 0=no damage to plant)
Procedure: as §1, §2

[5] = system: Alopecurus myosuroides (ALOMY); assay: Post-emergence herbicidal activity, glasshouse pot test; details: Alopecurus myosuroides, 312 h, rate 250 g/ha, evaluated after 13 days, glasshouse, read-out: Post-emergence activity ALOMY (100=total damage to plant; 0=no damage to plant)
Procedure: as §1, §2

Avena fatua (AVEFA) [6] = assay: as above; details: Avena fatua, 312 h, rate 250 g/ha, evaluated after 13 days, glasshouse, read-out: Post-emergence activity AVEFA (100=total damage to plant; 0=no damage to plant)
Procedure: as §1, §2

Lolium perenne (LOLPE) [7] = assay: as above; details: Lolium perenne, 312 h, rate 250 g/ha, evaluated after 13 days, glasshouse, read-out: Post-emergence activity LOLPE (100=total damage to plant; 0=no damage to plant)
Procedure: as §1, §2

[8] = system: Echinochloa crus-galli (ECHCG); assay: as above; details: Echinochloa crus-galli, 312 h, rate 250 g/ha, evaluated after 13 days, glasshouse, read-out: Post-emergence activity ECHCG (100=total damage to plant; 0=no damage to plant)
Procedure: as §1, §2

SMILES	pest or weed control at 250 g/ha [1] [%]	pest or weed control at 250 g/ha (Avena fatua (AVEFA) [2]) [%]	pest or weed control at 250 g/ha (Lolium perenne (LOLPE) [3]) [%]	pest or weed control at 250 g/ha [4] [%]	pest or weed control at 250 g/ha [5] [%]	pest or weed control at 250 g/ha (Avena fatua (AVEFA) [6]) [%]	pest or weed control at 250 g/ha (Lolium perenne (LOLPE) [7]) [%]	pest or weed control at 250 g/ha [8] [%]
CCc1ccc(Oc2ccc(Cl)c(F)c2)cc1C1=C(O)C(C)(C)OC(C)(C)C1=O [Example A-31]	90	80	100	100	90	80	100	100
CCc1ccc(Oc2cccc(Br)c2)cc1C1=C(O)C(C)(C)OC(C)(C)C1=O [Example A-32]	30	20	80	90	30	20	40	100
CCc1ccc(Oc2ccc(F)cc2Cl)cc1C1=C(O)C(C)(C)OC(C)(C)C1=O [Example A-33]	20	10	80	90	40	50	50	100
CCc1ccc(Oc2ccc(C(F)(F)F)cn2)cc1C1=C(O)C(C)(C)OC(C)(C)C1=O [Example A-34]	100	100	100	100	100	100	100	100
CCc1ccc(Oc2ccc(F)cc2)cc1C1=C(O)CC2(CCOCC2)CC1=O [Example A-35]	90	70	70	100	80	90	80	100
CCc1ccc(Oc2ccc(Cl)cc2)cc1C1=C(O)CC2(CCOCC2)CC1=O [Example A-36]	90	90	90	100	100	100	90	100
CCc1ccc(Oc2ccc(Br)cc2)cc1C1=C(O)CC2(CCOCC2)CC1=O [Example A-37]	70	70	80	100	100	100	90	100
CCc1ccc(Oc2ccc(Cl)cc2F)cc1C1=C(O)CCCC1=O [Example A-38]	50	10	70	70	20	30	30	80
CCc1ccc(Oc2ccc(F)cc2Cl)cc1C1=C(O)CCCC1=O [Example A-39]	30	0	30	40	30	0	30	70
CCc1ccc(Oc2ccc(Cl)cc2Cl)cc1C1=C(O)CCCC1=O [Example A-40]	50	20	50	80	30	40	30	90
CCc1ccc(Oc2ccc(Br)cc2)cc1C1=C(O)CCCC1=O [Example A-41]	40	20	60	100	30	10	30	90
CCc1ccc(Oc2cccc(F)n2)cc1C1=C(O)C(C)(C)OC(C)(C)C1=O [Example A-43]	10	0	10	90	0	0	20	70
CCc1ccc(Oc2ncc(Cl)cc2Cl)cc1C1=C(O)C(C)(C)OC(C)(C)C1=O [Example A-44]	100	100	100	100	100	100	100	100
CCc1ccc(Oc2ncc(C(F)(F)F)cc2Cl)cc1C1=C(O)C(C)(C)OC(C)(C)C1=O [Example A-45]	100	100	100	100	100	100	100	100
CCc1ccc(Oc2ccc(Cl)c(F)c2)cc1C1=C(O)CC(C)(C)CC1=O [Example A-46]	100	30	70	90	80	50	60	100
CCc1ccc(Oc2ccc(F)cc2F)cc1C1=C(O)CC(C)(C)CC1=O [Example A-47]	50	0	40	90	30	10	30	80
CCc1ccc(Oc2ccc(Br)cc2)cc1C1=C(O)CC(C)(C)CC1=O [Example A-48]	100	30	70	100	80	40	70	100
CCc1ccc(Oc2ccc(Br)cc2F)cc1C1=C(O)CC(C)(C)CC1=O [Example A-49]	90	40	100	100	90	70	90	100
CCc1ccc(Oc2ccc(Cl)cc2)cc1C1=C(O)C(C)(C)CCC1=O [Example A-50]	0	0	70	100	0	0	60	50
CCc1ccc(Oc2ccc(Cl)c(F)c2)cc1C1=C(O)C(C)(C)CCC1=O [Example A-52]	40	20	70	60	30	40	50	90
CCc1ccc(Oc2cccc(C(F)(F)F)n2)cc1C1=C(O)C(C)(C)OC(C)(C)C1=O [Example A-53]	0	0	40	20	0	0	30	80
